Reference: patent publication US20150315188A1, “COMPOUNDS AND METHODS FOR TREATMENT OF HYPERTENSION” (MEDIVATION TECHNOLOGIES, INC., priority 2012, published 2015)

Legend:
[1] = target: T1, Human adrenergic α1B receptor (Homo sapiens, UniProt P35368); assay: β-Arrestin GPCR functional assay, adrenergic α1B (Protocol B); assay type: cell-based; details: for IC50: β-arrestin, antagonist vs nor-epinephrine EC80
T1 sequence (P35368 1-520): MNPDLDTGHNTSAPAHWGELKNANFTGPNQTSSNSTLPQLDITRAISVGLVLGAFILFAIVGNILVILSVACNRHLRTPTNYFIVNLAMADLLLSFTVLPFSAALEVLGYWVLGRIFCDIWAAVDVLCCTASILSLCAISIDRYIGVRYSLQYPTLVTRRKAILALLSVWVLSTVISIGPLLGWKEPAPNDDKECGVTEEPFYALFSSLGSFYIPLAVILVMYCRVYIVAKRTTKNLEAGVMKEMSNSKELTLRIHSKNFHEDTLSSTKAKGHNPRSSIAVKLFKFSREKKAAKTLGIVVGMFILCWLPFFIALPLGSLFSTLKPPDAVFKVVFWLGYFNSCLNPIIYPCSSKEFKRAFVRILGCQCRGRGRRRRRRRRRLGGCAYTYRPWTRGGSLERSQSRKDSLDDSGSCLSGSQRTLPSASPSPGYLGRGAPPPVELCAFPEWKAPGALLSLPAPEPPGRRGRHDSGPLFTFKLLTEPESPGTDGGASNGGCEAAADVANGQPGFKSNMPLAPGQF
In short: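 Antagonist mode: norepinephrine at its EC80 of 50 nM was added for 90 min at 37°C after a 30-min compound pretreatment of CHO cells expressing the human α1B receptor, with DMSO at 1% final. β-Arrestin recruitment read by chemiluminescence (60 min, RT, dark) and expressed as percent inhibition or IC50.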

[2] = target: T2, Human adrenergic α2B receptor (Homo sapiens, UniProt P18089); assay: Radioligand binding, adrenergic α2B (Protocol Group B); design: purchased Milipore (Millipore); details: for Ki / inhibition at 0.01 µM / inhibition at 0.03 µM / inhibition at 0.1 µM / Percentage inhibition of ligand binding, Adrenergic α2B (10 nM) / Percentage inhibition of ligand binding, Adrenergic α2B (30 nM) / Percentage inhibition of ligand binding, Adrenergic α2B (0.1 μM): Protocol Group B; for Ki: estimated Ki, read-out: Ki α2B; for inhibition at 0.01 µM / Percentage inhibition of ligand binding, Adrenergic α2B (10 nM): 10 nM compound; for inhibition at 0.01 µM: read-out: Percentage inhibition of ligand binding, Adrenergic α2B (10 nM); for inhibition at 0.03 µM / Percentage inhibition of ligand binding, Adrenergic α2B (30 nM): 30 nM compound; for inhibition at 0.03 µM: read-out: Percentage inhibition of ligand binding, Adrenergic α2B (30 nM); for inhibition at 0.1 µM / Percentage inhibition of ligand binding, Adrenergic α2B (0.1 μM): 0.1 μM compound; for inhibition at 0.1 µM: read-out: Percentage inhibition of ligand binding, Adrenergic α2B (0.1 μM); for Percentage inhibition of ligand binding, Adrenergic α2B (10 nM): 0.01 µM
T2 sequence (P18089 1-450): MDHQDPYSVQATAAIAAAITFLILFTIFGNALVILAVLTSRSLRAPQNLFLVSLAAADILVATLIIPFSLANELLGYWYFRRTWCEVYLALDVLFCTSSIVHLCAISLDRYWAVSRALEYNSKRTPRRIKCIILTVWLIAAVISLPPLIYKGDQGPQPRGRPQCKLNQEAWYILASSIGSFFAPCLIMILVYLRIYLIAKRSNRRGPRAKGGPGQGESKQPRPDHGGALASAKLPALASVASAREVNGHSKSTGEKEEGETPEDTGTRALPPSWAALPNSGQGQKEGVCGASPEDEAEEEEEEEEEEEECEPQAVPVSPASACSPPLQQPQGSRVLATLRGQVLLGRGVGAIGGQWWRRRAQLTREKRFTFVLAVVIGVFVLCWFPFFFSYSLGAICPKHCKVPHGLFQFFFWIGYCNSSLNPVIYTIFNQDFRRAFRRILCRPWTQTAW
In short: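 Compounds at various concentrations in 1% DMSO were tested on recombinant membranes in Tris-HCl pH 7.4 buffer containing MgCl2, CaCl2 and 0.2% BSA.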

[3] = target: T3, Human adrenergic α2A receptor (Homo sapiens, UniProt P08913); assay: Radioligand binding, adrenergic α2A (Protocol Group B); design: purchased Milipore (Millipore); details: Protocol Group B; for Ki: estimated Ki; for inhibition at 0.1 µM / Percentage inhibition of ligand binding, Adrenergic α2A (0.1 μM): 0.1 μM compound; for inhibition at 0.1 µM: read-out: Percentage inhibition of ligand binding, Adrenergic α2A (0.1 μM); for inhibition at 0.3 µM / Percentage inhibition of ligand binding, Adrenergic α2A (0.3 μM): 0.3 μM compound; for inhibition at 0.3 µM: read-out: Percentage inhibition of ligand binding, Adrenergic α2A (0.3 μM)
T3 sequence (P08913 1-465): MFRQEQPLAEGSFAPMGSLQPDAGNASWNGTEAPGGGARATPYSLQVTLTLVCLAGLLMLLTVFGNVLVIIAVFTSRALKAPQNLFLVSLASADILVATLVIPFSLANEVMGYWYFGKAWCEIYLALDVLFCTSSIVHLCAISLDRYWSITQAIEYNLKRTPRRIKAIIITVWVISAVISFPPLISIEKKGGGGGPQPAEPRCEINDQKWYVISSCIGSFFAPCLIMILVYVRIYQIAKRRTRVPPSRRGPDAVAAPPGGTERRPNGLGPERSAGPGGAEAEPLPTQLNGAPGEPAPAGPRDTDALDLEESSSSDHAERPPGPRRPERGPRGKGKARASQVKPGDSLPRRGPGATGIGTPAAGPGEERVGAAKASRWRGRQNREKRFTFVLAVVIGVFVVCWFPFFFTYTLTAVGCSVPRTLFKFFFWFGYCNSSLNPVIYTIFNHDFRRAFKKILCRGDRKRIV
In short: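 Compounds (1% DMSO vehicle, various concentrations) competed against 2 nM [^3H]MK-912 on recombinant receptor membranes for 60 min at 25° C, Tris-HCl pH 7.4 buffer with Mg2+, Ca2+, BSA. Bound radioligand filtered and counted; 10 μM rauwolscine set nonspecific binding. Values: percent inhibition of specific binding or estimated Ki.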

[4] = 0.1 μM compound, nor-epinephrine at EC80 (50 nM)
[5] = 0.3 μM compound, nor-epinephrine at EC80 (50 nM)

Percentage inhibition, Adrenergic α1B [1, 4]	Percentage inhibition, Adrenergic α1B [1, 5]	IC50 [1]	Ki [2]	Ki [3]	inhibition at 0.01 µM [2]	inhibition at 0.03 µM [2]	inhibition at 0.1 µM [2]	inhibition at 0.1 µM [3]	inhibition at 0.3 µM [3]	Percentage inhibition of ligand binding, Adrenergic α2B (10 nM) [2]	Percentage inhibition of ligand binding, Adrenergic α2B (30 nM) ([2]; 0.03 µM)	Percentage inhibition of ligand binding, Adrenergic α2A (0.1 μM) [3]	Percentage inhibition of ligand binding, Adrenergic α2A (0.3 μM) [3]	Percentage inhibition of ligand binding, Adrenergic α2B (30 nM) [2]	Percentage inhibition of ligand binding, Adrenergic α2B (0.1 μM) ([2]; 0.1 µM)	Percentage inhibition of ligand binding, Adrenergic α2B, 0.1 nM ([2]; 0.1 nM compound, concentration series, 0.0001 µM)	Percentage inhibition of ligand binding, Adrenergic α2B (0.1 μM) [2]	inhibition at 0.1 µM ([1]; 0.1 μM compound, nor-epinephrine at EC80 (50 nM), read-out: Percentage inhibition, Adrenergic α1B)	inhibition at 0.3 µM ([1]; 0.3 μM compound, nor-epinephrine at EC80 (50 nM), read-out: Percentage inhibition, Adrenergic α1B)	Compound
32%	61%	150 nM	1.22 nM	13 nM	–	–	–	–	–	–	–	–	–	–	–	–	–	–	–	Cc1ccc2c(c1)c1c(n2CC(C)(O)c2ccncc2)CCN2CCCC12 (single isomer, unassigned) [13b]
–	–	45 nM	1.25 nM	31.1 nM	93%	94%	94%	73%	82%	–	–	–	–	–	–	–	–	–	–	Cc1ccc2c(c1)c1c(n2CC(C)(O)c2ccnc(F)c2)CCN2CCCC12 (single isomer, unassigned) [48a]
–	–	926 nM	1.45 nM	9.9 nM	–	–	–	–	–	82%	81%	82%	84%	–	–	–	–	–	–	Cc1ccc2c(c1)c1c(n2CC(OCC2CCC2)c2ccncc2)CCN2CCCC12 (single isomer, unassigned) [138b]
–	–	350 nM	1 nM	10 nM	93%	98%	100%	84%	91%	–	–	–	–	–	–	–	–	–	–	Cc1ccc2c(c1)c1c(n2CC(OCC2CCC2)c2ccncc2)CCN(C)C1 (single isomer, unassigned) [59a]
–	–	189 nM	2.95 nM	66.1 nM	79%	93%	–	–	77%	–	–	57%	–	–	–	–	–	–	–	OC(Cn1c2c(c3cc(Cl)cc(F)c31)C1CCCN1CC2)c1ccncc1 (single isomer, unassigned) [135a]
–	–	782 nM	2.6 nM	362 nM	–	–	–	–	–	68%	–	26%	38%	90%	97%	–	–	–	–	CC(O)(Cn1c2c(c3cc(F)ccc31)C1CCCN1CC2)c1ccncc1 (single isomer, unassigned) [31b]
–	–	213 nM	0.7 nM	8.8 nM	93%	95%	–	81%	91%	–	–	–	–	–	–	–	–	–	–	Cc1cc(Cl)c2c(c1)c1c(n2CC(C)(O)c2ccncc2)CCN2CCCC12 (single isomer, unassigned) [91a]
76%	86%	25 nM	1.1 nM	6.8 nM	–	–	–	–	–	98%	100%	80%	89%	–	96%	18%	–	–	–	Cc1ccc2c(c1)c1c(n2CC(O)c2ccncc2F)CCN2CCCC12 (single isomer, unassigned) [14b]
–	–	35.6 nM	0.79 nM	2.4 nM	–	–	–	–	–	106%	107%	94%	102%	–	–	–	–	–	–	Cc1cc(F)c2c(c1)c1c(n2CC(O)c2ccncc2)CCN2CCCC12 (single isomer, unassigned) [137b]
–	–	1140 nM	1.3 nM	154 nM	–	–	–	–	–	86%	97%	32%	48%	–	100%	–	–	–	–	CCCOC(Cn1c2c(c3cc(C)ccc31)CN(C)CC2)c1ccncc1 (single isomer, unassigned) [42b]
–	–	54 nM	0.75 nM	5.69 nM	–	–	–	–	–	98%	100%	73%	86%	–	–	–	100%	–	–	Cc1cc2c3c(n(CC(C)(O)c4ccncc4)c2cc1Cl)CCN1CCCC31 (single isomer, unassigned) [50b]
–	–	72.2 nM	0.95 nM	2.2 nM	91%	90%	–	91%	88%	–	–	–	–	–	–	–	–	–	–	Cc1ccc2c(c1)c1c(n2CC(OCC2CCC2)c2ccncc2)CCN2CCCC12 (single isomer, unassigned) [138a]
–	–	100 nM	1.85 nM	50 nM	–	–	–	–	–	–	–	–	–	–	–	–	–	49%	74%	Cc1ccc2c(c1)c1c(n2CC(C)(O)c2ccncc2)CCN2CCCC12 (single isomer, unassigned) [13a]
–	–	662 nM	3.6 nM	126 nM	–	–	–	–	–	–	–	–	–	–	–	–	–	–	–	Cc1ccc2c(c1)c1c(n2CC(OC(=O)N2CCCC2)c2ccncc2)CCN(C)C1 (single isomer, unassigned) [4b]
